Data on 21 compounds can be found in ChEMBL document CHEMBL4808246 (Bioorg Med Chem, 2021).

Data set [1] concerns the target T1, Prostaglandin G/H synthase 1 (Ovis aries) (UniProt P05979).
T1 sequence (whole entry): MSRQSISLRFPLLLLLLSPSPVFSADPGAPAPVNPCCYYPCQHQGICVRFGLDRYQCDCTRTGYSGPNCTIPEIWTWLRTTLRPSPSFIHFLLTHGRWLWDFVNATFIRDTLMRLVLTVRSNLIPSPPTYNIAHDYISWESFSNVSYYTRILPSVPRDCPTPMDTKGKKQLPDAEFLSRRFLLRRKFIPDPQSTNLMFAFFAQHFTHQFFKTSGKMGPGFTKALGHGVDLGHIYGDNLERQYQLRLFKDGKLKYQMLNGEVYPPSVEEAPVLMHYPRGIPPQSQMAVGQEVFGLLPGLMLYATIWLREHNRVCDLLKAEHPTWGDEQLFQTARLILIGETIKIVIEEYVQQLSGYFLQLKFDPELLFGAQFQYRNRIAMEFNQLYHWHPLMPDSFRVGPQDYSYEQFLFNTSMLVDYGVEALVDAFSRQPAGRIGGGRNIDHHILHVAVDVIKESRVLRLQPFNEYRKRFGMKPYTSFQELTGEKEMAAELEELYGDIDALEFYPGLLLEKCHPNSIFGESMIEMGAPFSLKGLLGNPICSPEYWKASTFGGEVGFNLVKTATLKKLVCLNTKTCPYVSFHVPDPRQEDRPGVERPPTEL
As to the kind of experiment: Inhibition of ovine COX-1 assessed as production of PGE2 using arachidonic acid as a substrate preincubated for 60 mins at 100 uM followed by substrate addition and measured after 2 mins by ELISA analysis relative to control. Conditions: time 62.0 min. On the technique in general: In an ELISA, binding on a coated surface is turned into a signal by an enzyme label.

Data set [2] deals with T1, Prostaglandin G/H synthase 1 (Ovis aries). As to the kind of experiment: Inhibition of ovine COX-1 assessed as production of PGE2 using arachidonic acid as a substrate preincubated for 60 mins at 10 uM followed by substrate addition and measured after 2 mins by ELISA analysis relative to control.
For data set [3] the target is unchanged. Briefly: Inhibition of ovine COX-1 assessed as production of PGE2 using arachidonic acid as a substrate preincubated for 60 mins at 1 uM followed by substrate addition and measured after 2 mins by ELISA analysis relative to control.
Data set [4] has the same target. Briefly: Inhibition of ovine COX-1 assessed as production of PGE2 using arachidonic acid as a substrate preincubated for 60 mins at 0.1 uM followed by substrate addition and measured after 2 mins by ELISA analysis relative to control.
In data set [5] the target is T2, Prostaglandin G/H synthase 2 (Homo sapiens, UniProt P35354).
T2 sequence (P35354 whole entry): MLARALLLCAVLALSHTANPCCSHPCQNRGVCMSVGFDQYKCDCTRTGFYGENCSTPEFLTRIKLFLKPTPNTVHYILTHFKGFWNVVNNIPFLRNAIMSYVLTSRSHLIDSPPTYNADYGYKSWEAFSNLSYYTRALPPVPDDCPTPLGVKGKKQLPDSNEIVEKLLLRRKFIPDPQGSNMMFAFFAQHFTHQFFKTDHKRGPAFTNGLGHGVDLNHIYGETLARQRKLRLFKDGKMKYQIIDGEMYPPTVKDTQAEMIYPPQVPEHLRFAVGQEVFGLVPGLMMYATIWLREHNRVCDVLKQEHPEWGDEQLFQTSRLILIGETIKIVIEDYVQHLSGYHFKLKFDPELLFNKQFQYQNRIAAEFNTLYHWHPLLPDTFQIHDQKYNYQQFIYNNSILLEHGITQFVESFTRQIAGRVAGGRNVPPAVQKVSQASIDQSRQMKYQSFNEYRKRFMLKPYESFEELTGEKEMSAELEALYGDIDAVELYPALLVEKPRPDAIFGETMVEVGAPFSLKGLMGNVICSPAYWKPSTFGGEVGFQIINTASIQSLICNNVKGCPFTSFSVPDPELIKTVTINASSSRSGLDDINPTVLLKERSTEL
As to the kind of experiment: Inhibition of human recombinant COX-2 assessed as production of PGE2 using arachidonic acid as a substrate preincubated for 60 mins followed by substrate addition and measured after 2 mins by ELISA analysis.

In data set [6] the target is T3, Prostaglandin G/H synthase 1 (Ovis aries, UniProt P05979).
T3 sequence (P05979 whole entry): T1 sequence (whole entry)
As to the kind of experiment: Inhibition of ovine COX-1 assessed as production of PGE2 using arachidonic acid as a substrate preincubated for 60 mins followed by substrate addition and measured after 2 mins by ELISA analysis.

Data set [7] is described as follows: Selectivity index, ratio of IC50 for ovine COX-1 to IC50 for human COX-2.
Data set [8] in a line: Solubility of the compound in water. In kind it is physicochemical. The note with it: buffer.
The subject of data set [9] is Mus musculus. Briefly: Antiinflammatory activity in mouse xylene induced ear edema model assessed as ear weight difference at 30 mg/kg, po once daily administered for 3 days prior to xylene stimulation and measured after 30 mins (reference value: 13.64 =/- 2.55 mg). In kind it is functional. The note with it: time 3 day.
Data set [10] has as its system Mus musculus. Briefly: Antiinflammatory activity in mouse xylene induced ear edema model assessed as inhibition of auricular edemas at 30 mg/kg, po once daily administered for 3 days prior to xylene stimulation and measured after 30 mins relative to control. In kind it is functional. Conditions: 72 h, time 3 day.
In data set [11] the test system is Mus musculus. As to the kind of experiment: Analgesic activity in mouse model of acetic-acid induced writhing assessed as number of writhes at 30 mg/kg, po once daily administered for 3 days prior to acetic acid injection measured after 20 mins (reference value: 29.13+/-9.36). In kind it is functional. The note with it: time 3 day. Background: Writhing tests count abdominal constrictions after an irritant is injected.

In data set [12] the test system is Mus musculus. As to the kind of experiment: Analgesic activity in mouse model of acetic-acid induced writhing assessed as inhibition of writhing at 30 mg/kg, po once daily administered for 3 days prior to acetic acid injection measured after 20 mins relative to control. In kind it is functional. The note with it: 72 h, time 3 day.

Take `Cc1ccc(-c2cc(-c3ccccc3)n(S(=O)(=O)Oc3ccccc3)n2)cc1`: the inhibition (commonly the change of the read-out against control, counted positive when it falls) is 6% in data set [1], 1% in data set [2], -3% in data set [3] and 10% in data set [4].
For `Cc1cc(-c2ccc(Br)cc2)nn1S(=O)(=O)Oc1ccccc1`, the IC50 (as a rule, the concentration that gives 50% inhibition) was found to be 0.2 µM in [5] and 0.14 µM in [6]. Also, the inhibition in [1] is 70%; in data set [2], 71%; in data set [3] it was 68%; in [4], 45%. In data set [7], the Ratio is 1.
Consider `CC(COCCOCCOCCOCCOCCOCCOCCOCCOCCOCCOCCOCCOCCOCCOCCOCCOCCOCCOCCOCCOCCOCCOCCOCCOCCOCCOCCOCCOCCOCCOCCOCCOCCOCCOCCOCCOCCOCCO)OCC(C)OCC(C)OCC(C)OCC(C)OCC(C)OCC(C)OCC(C)OCC(C)OCC(C)OCC(C)OCC(C)OCC(C)OCC(C)OCC(C)OCC(C)OCC(C)OCC(C)OCC(C)OCC(C)OCC(C)OCC(C)OCC(C)OCC(C)OCC(C)OCC(C)OCC(C)OCC(C)OCC(C)OCC(C)OCCOCCOCCOCCOCCOCCOCCOCCOCCOCCOCCOCCOCCOCCOCCOCCOCCOCCOCCOCCOCCOCCOCCOCCOCCOCCOCCOCCOCCOCCOCCOCCOCCOCCOCCOCCOCCOCCO` (configuration not stated), for which the solubility entry in data set [8] is “Insoluble”. Further, the Activity in the data set with Mus musculus [9] worked out at 13.64 mg; in the data set on Mus musculus [11], 29.13. The inhibition in vivo at 30 mg/kg in the data set with Mus musculus [10] and in the data set on Mus musculus [12] was 0% each time.
With `Cc1cc(-c2ccc(C(F)(F)F)cc2)nn1S(=O)(=O)Oc1ccccc1`, the IC50 in data set [5] is below 0.01 µM. The inhibition is 22% in data set [1], 18% in [2], 32% in data set [3] and 33% in data set [4]. Further, the solubility result in [8] is on record as “Insoluble”. For the same compound, the Activity in the data set with Mus musculus [9] worked out at 8.75 mg; with Mus musculus [11], 21.63. Moreover, the inhibition in vivo (as a rule, the share of the control response that was lost under treatment) at 30 mg/kg in the data set on Mus musculus [10] was found to be 35.9%; in the data set with Mus musculus [12], 25.8%.
`Cc1cc(-c2ccccn2)nn1S(=O)(=O)Oc1ccccc1`: the IC50 in [5] worked out at 0.1 µM. Further, the inhibition was 29% in [1], 29% in [2], 39% in [3] and 25% in [4]. The solubility entry in data set [8] is “Insoluble”. Also, the Activity is recorded as 12.1 mg in the data set with Mus musculus [9] and 24.75 with Mus musculus [11]. In addition, the inhibition in vivo at 30 mg/kg is 11.3% with Mus musculus [10] and 15% with Mus musculus [12].
`Cc1cc(-c2cccs2)nn1S(=O)(=O)Oc1ccccc1`: the inhibition turned out to be 38% in data set [1], 33% in data set [2], 24% in data set [3] and 18% in [4]. Besides, in [6], the IC50 is above 100 µM.
Turning to `Cc1cc(-c2ccncc2)nn1S(=O)(=O)Oc1ccccc1`, the inhibition in data set [1] came out at 61%; in data set [2], 43%; in [3], 40%; in data set [4], 36%.
Turning to `Cc1cc(-c2ccccc2)nn1S(=O)(=O)Oc1ccccc1C(F)(F)F`, in data set [5], the IC50 was above 100 µM.
Regarding `Cc1cccc(-c2cc(C)n(S(=O)(=O)Oc3ccccc3)n2)c1`, the inhibition came out at 53% in data set [1] and 33% in data set [2]. Besides, in data set [6], the IC50 turned out to be 72.3 µM. Besides, the solubility result in [8] is listed as “Insoluble”. Moreover, the Activity in the data set on Mus musculus [9] was 12.46 mg; with Mus musculus [11], 16.38. For the same compound, the figures for the inhibition in vivo at 30 mg/kg in the data set on Mus musculus [10] and in the data set with Mus musculus [12] were 8.7% and 43.8%, respectively.
`Cc1ccc(-c2cc(C(C)C)n(S(=O)(=O)Oc3ccccc3)n2)cc1`: the inhibition in data set [1] turned out to be 21%; in [2], 47%; in [3], 39%; in data set [4], 20%. For the same compound, the IC50 in data set [6] stood at 18.1 µM.
Regarding `CCc1ccc(-c2cc(C)n(S(=O)(=O)Oc3ccccc3)n2)cc1`, the inhibition is -1% in [3] and 11% in data set [4]. In [8], the solubility result is recorded as “Insoluble”. Also, the Activity worked out at 10.76 mg in the data set with Mus musculus [9] and 15.13 in the data set with Mus musculus [11]. In addition, the figures for the inhibition in vivo at 30 mg/kg in the data set with Mus musculus [10] and in the data set with Mus musculus [12] were 21.1% and 48.1%, respectively.
On to `Cc1cc(-c2ccco2)nn1S(=O)(=O)Oc1ccccc1`, for which, in data set [5], the IC50 turned out to be 0.031 µM. Also, the inhibition in data set [4] worked out at 47%. Moreover, in data set [8], the solubility result was “Insoluble”. Besides, the Activity in the data set on Mus musculus [9] was determined as 11.93 mg; in the data set with Mus musculus [11], 16.75. Moreover, the inhibition in vivo at 30 mg/kg with Mus musculus [10] stood at 12.5%; in the data set with Mus musculus [12], 42.5%.
Consider `Cc1cc(-c2ccc(F)cc2)nn1S(=O)(=O)Oc1ccccc1`, for which, in [5], the IC50 is above 10 µM. Besides, the inhibition in data set [1] was -2%.
In the case of `COc1ccc(-c2cc(C)n(S(=O)(=O)Oc3ccccc3)n2)cc1`, the inhibition in [1] stood at 30%; in data set [2], 29%; in [3] it was 21%; in [4] it was 19%. The IC50 in data set [6] was above 100 µM.
For the compound `Cc1ccccc1-c1cc(C)n(S(=O)(=O)Oc2ccccc2)n1`, the IC50 in data set [5] is 11.1 µM. In addition, the inhibition in [1] was 42%; in data set [2], 55%; in [3] it was 63%; in data set [4], 65%.
Turning to `Cc1ccc(-c2cc(C)n(S(=O)(=O)Oc3ccc(C)c(C)c3)n2)cc1`, the inhibition in data set [1] came out at 30%; in [2], 31%; in data set [3], 30%; in data set [4] it was 18%. In addition, the IC50 in data set [6] was above 100 µM.
As to `Cc1cc(-c2ccccc2Cl)nn1S(=O)(=O)Oc1ccccc1`, the inhibition in data set [1] was 60%; in data set [2], 55%; in data set [3], 55%; in data set [4] it was 61%.
In the case of `Cc1cc(-c2ccc(Cl)cc2)nn1S(=O)(=O)Oc1ccccc1`, the inhibition in data set [1] came out at 43%; in [2], 20%; in data set [3] it was 18%; in [4], 16%. For the same compound, the IC50 in [6] is above 100 µM.
As for `Cc1cc(-c2cccc(Cl)c2)nn1S(=O)(=O)Oc1ccccc1`, the IC50 in data set [5] turned out to be 0.11 µM. For the same compound, the inhibition amounted to 14% in [1], 5% in data set [2], 17% in data set [3] and 8% in [4]. In addition, the solubility entry in [8] is given as “Insoluble”. Further, the Activity turned out to be 8.18 mg with Mus musculus [9] and 23.63 in the data set on Mus musculus [11]. Further, the inhibition in vivo at 30 mg/kg in the data set on Mus musculus [10] came out at 10%; with Mus musculus [12] it was 18.9%.
With `Cc1cc(-c2cccnc2)nn1S(=O)(=O)Oc1ccccc1`, the inhibition in data set [1] stood at 34%; in data set [2], 24%; in data set [3] it was 23%; in [4], 19%.
Regarding `Cc1cc(-c2ccc3ccccc3c2)nn1S(=O)(=O)Oc1ccccc1`, the inhibition in data set [1] was determined as 27%; in data set [2], 13%; in [3], 7%; in [4], 4%.
